Reference: patent US11957783B2, “Topical immunosensitizers to treat viral and fungal infections” (Squarex, LLC, priority 2018, dated 2024)

Experiments:
[1] = test system: peripheral blood mononuclear cells (PBMC); experiment: PBMC proliferation in vitro (tritiated thymidine incorporation), Example 1; type: cell-based, human; conditions: for PBMC Percent proliferation, normalized all three stimuli: normalized to average of group A day 57, n = 36; for PBMC Percent proliferation: n = 12; for Percent proliferation: 2 subjects with largest and smallest day 57-day 1 difference removed, n = 10
Experimental: (§1) After a screening visit at which blood was drawn to test for IgG antibody against HSV-1 and subjects were interviewed for inclusion/exclusion criteria, selected subjects returned for blood draws on day 1. After the blood draw on day 1, subjects in group A only were dosed with SADBE. A petrolatum donut was applied with a cotton swab to form about a 1 cm diameter donut on skin on the inner aspect of the upper arm. Then a separate cotton swab was dipped in a 2% SADBE solution (w/v) in DMSO, and the swab was then used to apply about 10-20 mg of solution over about a 1 cm diameter circle within the petrolatum donut. Immediately after application, the application site was covered with TEGADERM. Subjects were advised to remove the TEGADERM and rinse and wipe the spot three hours later. The group A subjects then returned for blood draws on days 15 and 57 and were queried about adverse events on those dates.
PBMC were isolated using SepMate PBMC isolation tubes (Stem Cell Technologies, Vancouver, Canada) and Ficoll-Paque according to the manufacturer's instructions. PBMC were isolated and suspended in negative control medium at 2 million cells/ml. PBMC suspension (100 μL) was added to 100 μL of medium in quadruplicate in 96-well plates. The plates were prepared in advance and stored at −70° C. The wells were in five different conditions in quadruplicate with these final concentrations after addition of the 100 μL of PBMC suspension in negative control medium. • 1. Negative control in medium (RPMI with glutamine and pen/strep, supplemented with 10% human A/B serum). • 2. Medium plus 16 μg/ml protein from heat-inactivated HSV-1-infected Vero cell extracts. • 3. Medium plus heat-inactivated HSV-1 cell-free virus at a final 7.5 million pfu/ml. • 4. Medium plus Candida cell extract. (Greer item number M15A50, 20,000 pnu/ml allergenic extract mixed molds Candida albicans, was diluted 1/50 into medium). • 5. Positive control, medium plus 10 μg/ml concanavalin A.
A second plate was incubated for 4 days. On the 4th day 1 μCi of tritiated thymidine in 50 μl of fresh negative control medium was added to each well. After 22 hours incubation the cells were harvested onto a filter mat and each well counted by scintillation counting for tritium incorporation into DNA as a quantitative measure of cell division.
The relative proliferation for each test condition was calculated as (avg. CPM test condition−avg. CPM negative control)/(avg. CPM positive control−avg. CPM negative control). The average CPM is the average tritium counts per minute of the 4 wells in a given test condition for a given collection point of a given patient. To calculate the normalized proliferation to all three stimuli, each data point was converted to a percentage proliferation relative to the average proliferation to that stimulus in group C or group A day 57, whichever was being compared to.
Immediately after the blood collection on day 1, the group A subjects (frequent cold sore sufferers) were treated with one dose of topical 2% SADBE in DMSO applied to the inner aspect of the subject's arm. They returned for blood collection on day 15 and day 57, two and 8 weeks after the single dose of drug. The relative proliferation of PBMC from the group A subjects collected on days 1, 15, and 57, in response to the stimuli, is shown in Table 4.

[2] = test system: blood cells (B-Cells, T-Cells, helper/cytotoxic); experiment: Blood cell counts of subjects; type: in vivo, human; conditions: for Absolute Count CD19 (B-Cells), group average / Helper/Cytotoxic Ratio, group average / Percentage CD3 (T-Cells), group average / Percentage CD19 (B-Cells), group average / T-cell to B-cell ratio, group average: n = 12
Experimental: as §1
(§2) At this study visit where blood was drawn it was tested for blood cell counts, various cytokine levels, and anti-HSV-1 IgG quantitative levels.
Certain blood cell count parameters were measured in the study. Differences vs. group A day 1 that are statistically significant are highlighted in bold underline.

[3] = test system: Interleukin 2 Receptor (CD25); experiment: Plasma level of Interleukin 2 Receptor (CD25); type: in vivo, human; conditions: for Interleukin 2 Receptor (CD25) in plasma, number of subjects with undetectable levels / Interleukin 2 Receptor (CD25) in plasma, group average: n = 12; for Interleukin 2 Receptor (CD25) in plasma, number of subjects with undetectable levels: lower limit of detection 9.19 pg/ml; for Interleukin 2 Receptor (CD25) in plasma, group average: undetectable counted as 9.19 pg/ml
Experimental: as §1, §2
All subjects had detectable IL-2 and the large majority had detectable IL-2 receptor.
For IL2R the detection limit was 9.19 pg/ml and the number of subjects who measured undetectable are listed. If a subject's IL2R was undetectable, the value of 9.19 pg/ml was used for that subject in detecting the average of the group. No subjects had undetectable IL2.

[4] = test system: anti-HSV-1 IgG; experiment: Serum anti-HSV-1 IgG quantitative levels; type: in vivo, human; conditions: for Level of anti-HSV1 IgG, group average: n = 12
Experimental: as §1, §2
Anti-HSV-1 IgG was quantified in serum collected at each study visit.

[5] = test system: herpes labialis outbreak; conditions: 2.0% SADBE in DMSO once to arm; placebo 40 days; P=0.009; previous trial (Palli 2017); cited from earlier work

CCCCOc1c(OCCCC)c(=O)c1=O [SADBE, 3,4-Dibutoxy-3-cyclobutene-1,2-dione]
PBMC Percent proliferation, normalized all three stimuli ([1]; group A Day 15): 71.65% | Percent proliferation, normalized all three stimuli ([1]; group A Day 57, largest and smallest difference data points removed, n = 30): 99.97% | PBMC Percent proliferation, normalized all three stimuli ([1]; group A Day 57): 99.97% | PBMC Percent proliferation ([1]; stimulus Candida extract, group A Day 15 after one SADBE treatment): 3.33% | Percent proliferation ([1]; stimulus Candida extract, group A Day 57): 3.19% | PBMC Percent proliferation ([1]; stimulus Candida extract, group A Day 57 after one SADBE treatment): 7.35% | PBMC Percent proliferation ([1]; stimulus HSV-1-infected cell extracts, group A Day 15 after one SADBE treatment): 15.43% | Percent proliferation ([1]; stimulus HSV-1-infected cell extracts, group A Day 57): 15.78% | PBMC Percent proliferation ([1]; stimulus HSV-1-infected cell extracts, group A Day 57 after one SADBE treatment): 16.96% | PBMC Percent proliferation ([1]; stimulus HSV-1 virus, group A Day 15 after one SADBE treatment): 10.52% | Percent proliferation ([1]; stimulus HSV-1 virus, group A Day 57): 12.88% | PBMC Percent proliferation ([1]; stimulus HSV-1 virus, group A Day 57 after one SADBE treatment): 13.37% | Absolute Count CD19 (B-Cells), Sample/A1 ([2]; A15 / group A day 1): 0.88 | Helper/Cytotoxic Ratio, Sample/A1 ([2]; A15 / group A day 1): 0.68 | Percentage CD3 (T-Cells), Sample/A1 ([2]; A15 / group A day 1): 1.02 | Percentage CD19 (B-Cells), Sample/A1 ([2]; A15 / group A day 1): 0.83 | T-cell to B-cell ratio, Sample/A1 ([2]; A15 / group A day 1): 1.35 | Absolute Count CD19 (B-Cells), Sample minus A1 ([2]; A15 minus group A day 1): −22.63 cells/mm^3 | Helper/Cytotoxic Ratio, Sample minus A1 ([2]; A15 minus group A day 1): −1.67 | Percentage CD3 (T-Cells), Sample minus A1 ([2]; A15 minus group A day 1): 1.42% | Percentage CD19 (B-Cells), Sample minus A1 ([2]; A15 minus group A day 1): −2.08% | T-cell to B-cell ratio, Sample minus A1 ([2]; A15 minus group A day 1): 2.41 | Absolute Count CD19 (B-Cells), Sample/A1 ([2]; A57 / group A day 1): 0.99 | Helper/Cytotoxic Ratio, Sample/A1 ([2]; A57 / group A day 1): 0.83 | Percentage CD3 (T-Cells), Sample/A1 ([2]; A57 / group A day 1): 1.03 | Percentage CD19 (B-Cells), Sample/A1 ([2]; A57 / group A day 1): 0.95 | T-cell to B-cell ratio, Sample/A1 ([2]; A57 / group A day 1): 1.01 | Absolute Count CD19 (B-Cells), Sample minus A1 ([2]; A57 minus group A day 1): −1.85 cells/mm^3 | Helper/Cytotoxic Ratio, Sample minus A1 ([2]; A57 minus group A day 1): −0.90 | Percentage CD3 (T-Cells), Sample minus A1 ([2]; A57 minus group A day 1): 2.58% | Percentage CD19 (B-Cells), Sample minus A1 ([2]; A57 minus group A day 1): −0.58% | T-cell to B-cell ratio, Sample minus A1 ([2]; A57 minus group A day 1): 0.69 | Absolute Count CD19 (B-Cells), group average ([2]; group A day 15 (A15)): 171.74 cells/mm^3 | Helper/Cytotoxic Ratio, group average ([2]; group A day 15 (A15)): 3.58 | Percentage CD3 (T-Cells), group average ([2]; group A day 15 (A15)): 77.50% | Percentage CD19 (B-Cells), group average ([2]; group A day 15 (A15)): 10.17% | T-cell to B-cell ratio, group average ([2]; group A day 15 (A15)): 9.22 | Absolute Count CD19 (B-Cells), group average ([2]; group A day 57 (A57)): 192.52 cells/mm^3 | Helper/Cytotoxic Ratio, group average ([2]; group A day 57 (A57)): 4.35 | Percentage CD3 (T-Cells), group average ([2]; group A day 57 (A57)): 78.67% | Percentage CD19 (B-Cells), group average ([2]; group A day 57 (A57)): 11.67% | T-cell to B-cell ratio, group average ([2]; group A day 57 (A57)): 7.50 | Interleukin 2 Receptor (CD25) in plasma, Sample/A1 ([3]; A15 / group A day 1): 1.23 | Interleukin 2 Receptor (CD25) in plasma, Sample minus A1 ([3]; A15 minus group A day 1): 167.04 pg/mL | Interleukin 2 Receptor (CD25) in plasma, Sample/A1 ([3]; A57 / group A day 1): 0.96 | Interleukin 2 Receptor (CD25) in plasma, Sample minus A1 ([3]; A57 minus group A day 1): -26.24 pg/mL | Interleukin 2 Receptor (CD25) in plasma, number of subjects with undetectable levels ([3]; group A day 15 (A15)): 1 | Interleukin 2 Receptor (CD25) in plasma, group average ([3]; group A day 15 (A15)): 899.81 pg/mL | Interleukin 2 Receptor (CD25) in plasma, number of subjects with undetectable levels ([3]; group A day 57 (A57)): 0 | Interleukin 2 Receptor (CD25) in plasma, group average ([3]; group A day 57 (A57)): 706.52 pg/mL | Level of anti-HSV1 IgG, Sample/A1 ([4]; A15 / group A day 1): 1.13 | Level of anti-HSV1 IgG, Sample minus A1 ([4]; A15 minus group A day 1): 1.08 IV | Level of anti-HSV1 IgG, Sample/A1 ([4]; A57 / group A day 1): 0.91 | Level of anti-HSV1 IgG, Sample minus A1 ([4]; A57 minus group A day 1): −0.73 IV | change in anti-HSV1 IgG from day 15 to day 57 in group A ([4]; serum, after one SADBE dose, P<0.01): highly significant decrease | Level of anti-HSV1 IgG, group average ([4]; serum, group A day 15 (A15)): 9.39 IV | Level of anti-HSV1 IgG, group average ([4]; serum, group A day 57 (A57)): 7.58 IV | median time to the next outbreak [5]: more than 122 days
